Test results from patent publication US9757464B2, “Pharmaceutical compositions of dextran polymer derivatives” (Bend Research, Inc., priority 2009, dated 2017).

Experiments:
[1] = Tg of amorphous active agent by DSC; assay type: physicochemical
[2] = Syringe dissolution test (in vitro dissolution performance); assay type: physicochemical; details: pH 7.4 buffer; for Concentration: 50 μg/mL dosed
Description: This solution was adjusted to pH 7.42 by adding sufficient 0.1 N HCl. […] After adding the dispersion and the buffer to the syringe, the syringe was periodically inverted to mix the components in the syringe. The syringe was fitted with a 0.45 μm Supor PES syringe filter (manufacturer, city, state). After 5 minutes, 1 mL of fluid was pushed through the filter into a 2-mL centrifuge tube. A 0.5-mL aliquot of methanol was then added to the centrifuge tube, which was then inverted to mix the contents in the tube, followed by centrifugation at 13,000 rpm for 1 minute. The supernatant was transferred to another centrifuge tube. This procedure was repeated for all timepoints. Samples were frozen in liquid nitrogen and place on a lyophilizer for 3 days to remove all liquids.

Tg of amorphous active agent [1] [°C]	Concentration ([2]; 0 min) [µg/mL]	Concentration ([2]; 5 min) [µg/mL]	Concentration ([2]; 15 min) [µg/mL]	Concentration ([2]; 30 min) [µg/mL]	Concentration ([2]; 90 min) [µg/mL]	Concentration ([2]; 180 min) [µg/mL]	Cmax ([2]; syringe dissolution test) [µg/mL]	Compound
84	–	–	–	–	–	–	–	CCC(=O)O[C@]1(C(=O)SCF)[C@H](C)C[C@H]2[C@@H]3C[C@H](F)C4=CC(=O)C=C[C@]4(C)[C@@]3(F)[C@@H](O)C[C@@]21C [Active Agent 1, S-(fluoromethyl) 6α,9-difluoro-11β,17-dihydroxy-16α-methyl-3-oxoandrosta-1,4-diene-17β-carbothioate, 17-propionate]
–	0	0.25	0.30	0.10	0.24	0.37	0.37	CCC(=O)O[C@]1(C(=O)SCF)[C@H](C)C[C@H]2[C@@H]3C[C@H](F)C4=CC(=O)C=C[C@]4(C)[C@@]3(F)[C@@H](O)C[C@@]21C [Control 1]
